These results are taken from patent US20240317725A1, “LPA1 SMALL MOLECULE ANTAGONIST” (TUOJIE BIOTECH (SHANGHAI) CO., LTD., priority 2021, published 2024).

SMILES strings stand for the structures.

T1 sequence (Q92633 whole entry): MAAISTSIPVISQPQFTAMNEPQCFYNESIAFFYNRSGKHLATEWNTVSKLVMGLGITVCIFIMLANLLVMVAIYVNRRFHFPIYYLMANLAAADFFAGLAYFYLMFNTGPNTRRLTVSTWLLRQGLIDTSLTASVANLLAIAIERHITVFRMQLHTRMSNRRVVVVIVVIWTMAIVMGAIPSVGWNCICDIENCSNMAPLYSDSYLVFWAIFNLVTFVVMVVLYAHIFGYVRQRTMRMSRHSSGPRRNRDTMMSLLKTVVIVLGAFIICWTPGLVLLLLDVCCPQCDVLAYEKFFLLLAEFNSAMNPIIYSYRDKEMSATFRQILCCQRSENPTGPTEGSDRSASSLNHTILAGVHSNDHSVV

This assay has as its target T1, human lysophosphatidic acid receptor 1 (LPAR1) (Homo sapiens, UniProt Q92633).
T1 construct: host or cells: CHO-K1 (Chinese hamster ovary K1) cells, CHO-K1/LPA1R, kept under hygromycin B selection
In words: FLIPR test of antagonist properties: inhibition of LPA-induced intracellular calcium elevation in CHO-K1 cells expressing hLPAR1. Type of assay: cell-based. As to conditions: FLIPR calcium assay, CHO-K1/LPA1R cells, LPA at EC80. Here is the method:
The antagonist properties of the compounds of the present disclosure were tested using the FLIPR (fluorometric imaging plate reader) method. The compounds are inhibitors of intracellular calcium elevation induced by activation of hLPARI (human lysophosphatidic acid receptor 1) expressed in CHO-K1 cells (Chinese hamster ovary K1 cells, HDB).
2.1. Reaction buffer: HBSS+20 mM HEPES+0.1% fatty acid-free BSA+0.001% F-127
2.2. 50×Red dye: (a red dye for blocking background signals in cells) prepared by: weighing out 4 g of tartrazine and 10.2 g of acid red and dissolving them in 100 mL of H2O.
2.3. Fluo-8 staining mixture: 4 mL of reaction buffer, 32 μL of fluo-8, 320 μL of 50×Red dye, and 40 μL of probenecid.
3.1. LPA: dissolved in DPBS (containing 0.1% fatty acid-free BSA) to prepare a 0.8 μM stock solution, and the solution was aliquoted and stored at −20° C.
3.2. Test compound preparation: The test compounds were dissolved in DMSO to prepare 10 mM stock solutions, and the solutions were stored at −20° C. In the experiment, the compounds were first gradient-diluted with DMSO (initial concentration of 50 μM, 3-fold dilution, 10 points) to prepare 200×compound solutions. The compound solutions were then diluted with reaction buffer to give 5×compound solutions, and the solutions were transferred to a 384-well plate (Cat. No. 6008590) using Bravo.
4.1. CHO-K1/LPA1R cells were cultured in a cell culture medium (F-12+10% FBS+400 μg/mL hygromycin B).
4.2. When the cell confluence reached 80%, the cells were digested with 0.25% pancreatin.
4.3. When the cells became round, the digestion was stopped with the medium F-12 (10% FBS), and the cells were counted. Then the cell culture was diluted with F-12 (10% FBS) to give a cell suspension with a density of 6.7×10^5 cells/mL.
4.4. The cell suspension was added to a 384-well black cell culture plate at 30 µL/well using a Multidrop auto-dispenser, and the plate was incubated in a 37° C., 5% CO2 incubator for 20-24 h. The medium was changed to a serum-free F-12 medium, and the cells were starved for 24 h.
4.5. Dose experiment for testing LPA. Gradient dilutions of 6×LPA solution (initial concentration of 60 μM, 3-fold dilution, 10 points) were prepared with reaction buffer. The medium in the 384-well black cell culture plate was discarded and changed to reaction buffer. 10 μL of 5% DMSO reaction buffer was added, and 10 μL of Fluo-8 staining mixture was then added. The plate was incubated in the dark in a 37° C., 5% CO2 incubator for 0.5 h.
4.6. FLIPR was correspondingly programmed, the 6×LPA gradient solutions were added, and readings were taken. Two-minute data were collected.
4.7. A reaction curve was obtained from the numerical values of LPA, and the concentration of LPA at EC80 was calculated. A 6×LPA solution was prepared in a 384-well plate (Cat. No. 6008590), and HPE and ZPE were added to corresponding wells. HPE (one hundred per cent effect) was 60 μM LPA, and ZPE (zero per cent effect) was reaction buffer.
4.8. Testing of compounds. The medium in the 384-well black cell culture plate was discarded and changed to reaction buffer. 10 μL of 5×compound solution was transferred using Bravo, and then 10 μL of Fluo-8 staining mixture was added immediately. The plate was incubated in the dark in a 37° C., 5% CO2 incubator for 0.5 h.
4.9. FLIPR was correspondingly programmed, the 6×LPA solution was added, and readings were taken. Two-minute data were collected.
4.10. Finally, the output fluorescence counts were analyzed, and IC50 was calculated for the compounds.
With `COCc1ccnc(OCc2c(-c3ccc(OC4CC5CCC(F)(C(=O)O)C5C4)c(C)n3)nnn2C)n1` (single isomer, unassigned) [Compound 5-P2, 1-Fluoro-5-((6-(5-(((4-(methoxymethyl)pyrimidin-2-yl)oxy)methyl)-1-methyl-1H-1,2,3-triazol-4-yl)-2-methylpyridin-3-yl)oxy)octahydropentalene-1-carboxylic acid], the IC50 (as a rule, the concentration at which inhibition is half-maximal) was determined as 917 nM.

For `COc1ccnc(OCc2c(-c3ccc(OC4CC5CCC(C(=O)O)C5C4)c(C)n3)nnn2C)n1` (single isomer, unassigned) [Compound 11-P1, 5-((6-(5-(((4-Methoxypyrimidin-2-yl)oxy)methyl)-1-methyl-1H-1,2,3-triazol-4-yl)-2-methylpyridin-3-yl)oxy)octahydropentalene-1-carboxylic acid], the IC50 was over 10000 nM.

On to `Cc1nc(-c2nnn(C)c2COc2nccc(C(F)F)n2)ccc1OC1CC2CCC(F)(C(=O)O)C2C1` (stereo not shown) [Compound 6, 5-((6-(5-(((4-(Difluoromethyl)pyrimidin-2-yl)oxy)methyl)-1-methyl-1H-1,2,3-triazol-4-yl)-2-methylpyridin-3-yl)oxy)-1-fluorooctahydropentalene-1-carboxylic acid], for which the IC50 worked out at 39.6 nM.

Take `Cc1nc(-c2nnn(C)c2COc2nccc(O[C@H]3CCOC3)n2)ccc1OC1CC2CCC(C(=O)O)C2C1` (single isomer, unassigned) [Compound 9-P1]: the IC50 was determined as 33.4 nM.

As for `Cc1nc(-c2nnn(C)c2COc2nccc(C(F)(F)F)n2)ccc1OC1CC2CCC(C(=O)O)C2C1` (stereo not shown) [Compound 1, 5-((2-Methyl-6-(1-methyl-5-(((4-(trifluoromethyl)pyrimidin-2-yl)oxy)methyl)-1H-1,2,3-triazol-4-yl)pyridin-3-yl)oxy)octahydropentalene-1-carboxylic acid], the IC50 was 16.7 nM.

In the case of `COCc1ccnc(OCc2c(-c3ccc(OC4CC5CCC(C(=O)O)C5C4)c(C)n3)nnn2C)n1` (single isomer, unassigned) [Compound 3-P1, 5-((6-(5-(((4-(Methoxymethyl)pyrimidin-2-yl)oxy)methyl)-1-methyl-1H-1,2,3-triazol-4-yl)-2-methylpyridin-3-yl)oxy)octahydropentalene-1-carboxylic acid], the IC50 came out at 8.7 nM.

On to `Cc1nc(-c2nnn(C)c2COc2nccc(C(F)(F)F)n2)ccc1OC1CC2CCC(C(=O)O)C2C1` (single isomer, unassigned) [Compound 1-P1, 5-((2-Methyl-6-(1-methyl-5-(((4-(trifluoromethyl)pyrimidin-2-yl)oxy)methyl)-1H-1,2,3-triazol-4-yl)pyridin-3-yl)oxy)octahydropentalene-1-carboxylic acid], for which the IC50 was 13.3 nM.
